Our source for the GI50 and TGI values is PubChem BioAssay (NCI).

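All cell lines were grown in 96-well plates and treated with compound for 48 hours. GI50 = concentration required for 50% inhibition of growth. Definition used: TGI = concentration required for complete inhibition of growth.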

Test systems include 786-0 renal; DU-145 prostate; HCC-2998 colon; HOP-62 NSCLC; HOP-92 NSCLC; MCF7 breast; MOLT-4 leukemia; NCI-H522 lung; TK-10 renal; UACC-62 melanoma.
What all share (test): DTP human tumour cell line panel, 48 h

The term GI50 denotes the concentration giving 50% growth inhibition. A word on the TGI: it is the concentration giving total growth inhibition. Low values mean greater sensitivity of the cells, high ones lower sensitivity of the cells. On to `O=C(Nc1cccc(NS(=O)(=O)c2ccc(F)cc2)c1)c1ccc(-c2ccccc2)cc1`, for which the GI50 is 3.69 µM in the assay on 786-0 renal; 3.96 µM in the assay on DU-145 prostate; 3.48 µM in the assay with HCC-2998 colon; 4.66 µM in the assay on HOP-62 NSCLC; 1.93 µM in the assay on HOP-92 NSCLC; 2.71 µM in the assay on MCF7 breast. Besides, the GI50 in the assay on MOLT-4 leukemia was 3.05 µM; in the assay on NCI-H522 lung, 2.5 µM; with TK-10 renal it was 3.77 µM; in the assay with UACC-62 melanoma, 1.63 µM. Also, the TGI in the assay with 786-0 renal was more than 100 µM; in the assay on DU-145 prostate it was more than 100 µM; in the assay on HCC-2998 colon it was 24.4 µM; in the assay on HOP-62 NSCLC it was 37.2 µM; in the assay on HOP-92 NSCLC, 8.22 µM; in the assay with MCF7 breast, 11.2 µM. In addition, the concentration for total growth inhibition (TGI) in the assay with MOLT-4 leukemia worked out at 14.5 µM; in the assay with NCI-H522 lung, 13 µM; with TK-10 renal it was 36.5 µM; in the assay with UACC-62 melanoma, 6.68 µM.
In the case of `CCOC(=O)c1[nH]c2cccc3c2c1CC(Br)C3=O` (stereo not drawn), the TGI worked out at 17.3 µM with 786-0 renal; 30.4 µM in the assay on DU-145 prostate; 29.8 µM in the assay with HCC-2998 colon; 33.6 µM in the assay on HOP-62 NSCLC; 33.6 µM with HOP-92 NSCLC; 84.3 µM in the assay on MCF7 breast. The TGI turned out to be 6.33 µM in the assay with MOLT-4 leukemia and 28.1 µM with TK-10 renal.
Take `O=C(O)CSCC(=O)c1ccccc1`: the TGI with 786-0 renal, in the assay with DU-145 prostate, in the assay with HOP-62 NSCLC, in the assay on HOP-92 NSCLC, in the assay with MCF7 breast and with MOLT-4 leukemia was more than 100 µM in each case. The TGI with NCI-H522 lung, with TK-10 renal and in the assay on UACC-62 melanoma was more than 100 µM throughout.
Regarding `CC(C)(C)[Si](C)(C)OC1[C@@H](O[Si](C)(C)C(C)(C)C)[C@@H](CNC(=O)NC(=O)NC(=O)CI)O[C@H]1n1cnc2c(NC(=O)Nc3ccccc3)ncnc21` (stereo partly drawn), the GI50 in the assay with 786-0 renal is 0.357 µM; in the assay with DU-145 prostate, 8.67 µM; in the assay with HCC-2998 colon, 8.22 µM; with HOP-62 NSCLC, 0.392 µM; with MCF7 breast, 6.1 µM; with MOLT-4 leukemia it was 0.718 µM. In addition, the 50% growth inhibitory concentration (GI50) is 0.0262 µM in the assay on NCI-H522 lung, 0.21 µM with TK-10 renal and 8.63 µM in the assay on UACC-62 melanoma. The total growth inhibition concentration (TGI) in the assay with 786-0 renal amounted to 1.08 µM; in the assay with DU-145 prostate, 20 µM; with HCC-2998 colon, 17.8 µM; in the assay with HOP-62 NSCLC it was 1.28 µM; in the assay with MCF7 breast, 17.4 µM; in the assay with MOLT-4 leukemia it was 3.12 µM. The TGI in the assay with NCI-H522 lung amounted to 0.0522 µM; with TK-10 renal it was 1.05 µM; in the assay with UACC-62 melanoma, 22.6 µM.
For the molecule `N#Cc1c2ccccc2c2nnc3cc(C(F)(F)F)ccc3n12`, the GI50 in the assay with 786-0 renal is more than 100 µM; in the assay with DU-145 prostate, 58.4 µM; in the assay with HOP-62 NSCLC, 27.6 µM; in the assay with HOP-92 NSCLC, 51.5 µM; in the assay with MCF7 breast it was 10.7 µM; in the assay on MOLT-4 leukemia, 34.7 µM. For the same molecule, the GI50 in the assay on TK-10 renal is 99.8 µM. Further, the TGI in the assay on 786-0 renal is more than 100 µM; with DU-145 prostate it was more than 100 µM; in the assay on HOP-62 NSCLC, 58.3 µM; in the assay on HOP-92 NSCLC it was more than 100 µM; with MCF7 breast, 80.9 µM; in the assay with MOLT-4 leukemia, more than 100 µM. In the assay on TK-10 renal, this molecule showed a total growth inhibition concentration (TGI) of more than 100 µM.
On to `COc1cc2c3c(n(CCCO)c(=O)c2cc1OC)-c1cc2c(cc1C3=O)OCO2`, for which the GI50 in the assay with 786-0 renal was 2.46 µM; in the assay on DU-145 prostate it was 3.22 µM; with HOP-62 NSCLC it was 4.28 µM; in the assay on HOP-92 NSCLC, 0.226 µM; with MCF7 breast it was 2.94 µM; in the assay on MOLT-4 leukemia, 0.841 µM. In addition, the GI50 was more than 40.8 µM with NCI-H522 lung, 34.7 µM in the assay on TK-10 renal and 2.45 µM in the assay on UACC-62 melanoma. For the same molecule, the TGI is 10.1 µM in the assay on 786-0 renal; more than 44.3 µM in the assay with DU-145 prostate; 78.3 µM in the assay on HOP-62 NSCLC; 11.4 µM in the assay on HOP-92 NSCLC; more than 100 µM in the assay with MCF7 breast; 6.7 µM with MOLT-4 leukemia. Besides, the TGI with NCI-H522 lung is more than 100 µM; in the assay with TK-10 renal it was more than 100 µM; in the assay with UACC-62 melanoma, 25.3 µM.
As for `CC(C)SC1SCC2C(=O)N(C)C3(CC3C)C(=O)OCC(NC(=O)c3nc4ccccc4cc3O)C(=O)NC(C)C(=O)N(C)C1C(=O)N(C)C1(CC1C)C(=O)OCC(NC(=O)c1nc3ccccc3cc1O)C(=O)NC(C)C(=O)N2C` (stereo not drawn), the total growth inhibition concentration (TGI) with 786-0 renal was less than 0.0001 µM; in the assay on DU-145 prostate it was more than 100 µM; in the assay on HCC-2998 colon it was less than 0.0001 µM; in the assay with HOP-92 NSCLC, less than 0.0001 µM; with MOLT-4 leukemia, less than 0.0001 µM; in the assay with NCI-H522 lung, less than 0.0001 µM. Besides, the TGI with TK-10 renal and with UACC-62 melanoma was less than 0.0001 µM each time.
On to `O=C(O)C(Cc1ccccc1-c1ccccc1)C(=O)O`, for which the TGI with 786-0 renal, with DU-145 prostate, with HOP-92 NSCLC, in the assay with MCF7 breast, in the assay with MOLT-4 leukemia and with NCI-H522 lung was more than 100 µM in each case. Moreover, the TGI in the assay on TK-10 renal and with UACC-62 melanoma was more than 100 µM in each case.
Turning to `CCN(CC)c1ccc2[nH]c3c(C(N)=O)cc(=O)c(=O)c=3oc2c1`, the GI50 with 786-0 renal was 2.42 µM; with DU-145 prostate, 1.87 µM; in the assay with HOP-62 NSCLC it was 0.445 µM; in the assay with HOP-92 NSCLC it was 2.82 µM; in the assay with MCF7 breast it was 1.68 µM; in the assay on UACC-62 melanoma, 1.59 µM. For the same molecule, the TGI with 786-0 renal is more than 100 µM; in the assay on DU-145 prostate, 7.39 µM; in the assay on HOP-62 NSCLC it was 15.4 µM; with HOP-92 NSCLC it was 7.83 µM; with MCF7 breast, more than 100 µM; with UACC-62 melanoma, 4.75 µM.
With `CN(C)CCCNC(=O)c1cc(NC(=O)c2cc(NC(=O)CCCN3c4ccccc4C=Cc4ccccc43)cn2C)cn1C`, the GI50 in the assay with 786-0 renal is 11.4 µM; in the assay on DU-145 prostate it was 10.6 µM; in the assay with HCC-2998 colon, 2.17 µM; in the assay on HOP-62 NSCLC, 10.2 µM; in the assay on HOP-92 NSCLC, 10 µM; in the assay on MCF7 breast, 4.2 µM. The GI50 is 2.88 µM with MOLT-4 leukemia, 4.11 µM with NCI-H522 lung and 2.74 µM in the assay on TK-10 renal. For the same molecule, the total growth inhibition concentration (TGI) in the assay with 786-0 renal is more than 100 µM; in the assay with DU-145 prostate, 35.4 µM; in the assay on HCC-2998 colon, 4.03 µM; with HOP-62 NSCLC, more than 100 µM; in the assay on HOP-92 NSCLC, 78.7 µM; with MCF7 breast it was more than 100 µM. Also, the results for the TGI in the assay with MOLT-4 leukemia, in the assay with NCI-H522 lung and in the assay on TK-10 renal were more than 100 µM, 19.8 µM and 13.9 µM, respectively.
